According to the supplement of paper PMC10307832:

Tests used:
Assay in all cases: relative viability (nuclei count vs DMSO), 5 days (fraction); higher = more cells survive
[1] = compound: O=C(C[C@H]1NCCC[C@@H]1O)Cn1cnc2cc(Br)c(Cl)cc2c1=O (racemic) [Halofuginone] + CCNC(=O)c1noc(-c2cc(C(C)C)c(O)cc2O)c1-c1ccc(CN2CCOCC2)cc1 [Luminespib] (partner 0.01 µM)
Summary of the method: (§1)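 Lung cancer cell lines in 1536-well plates got either a single drug or a fixed anchor-drug dose together with five library-drug doses (not always all listed) in √10 steps, by pin tool, on the day after seeding. Nuclei were counted after 5 days, and relative viability is the treated-to-vehicle ratio of nuclei counts. Values are medians of duplicate plates.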

[2] = compound: O=C(C[C@H]1NCCC[C@@H]1O)Cn1cnc2cc(Br)c(Cl)cc2c1=O (racemic) [Halofuginone] + Cc1nc(Nc2ncc(C(=O)Nc3c(C)cccc3Cl)s2)cc(N2CCN(CCO)CC2)n1 [Dasatinib] (partner 0.075 µM)
Summary of the method: as §1

[3] = compound: COc1cc2c(Oc3ccc4[nH]c(C)cc4c3F)ncnc2cc1OCCCN1CCCC1 [Cediranib] + O=C(CCCCCCC(=O)Nc1ccccc1)NO [Vorinostat] (partner 1 µM)
Summary of the method: as §1

[4] = compound: Nc1ncn([C@H]2C[C@H](O)[C@@H](CO)O2)c(=O)n1 [Decitabine] + C[C@]1(O)C[C@@H](c2nc(-c3ccc4ccc(-c5ccccc5)nc4c3)c3c(N)nccn32)C1 [Linsitinib] (partner 1 µM)
Summary of the method: as §1

UMC-11
relative viability ([1]; first compound 0.001 µM): 1.08
relative viability ([1]; first compound 0.003162 µM): 1.05
relative viability ([1]; first compound 0.01 µM): 1.02
relative viability ([1]; first compound 0.03162 µM): 0.703
relative viability ([1]; first compound 0.1 µM): 0.412
relative viability ([2]; first compound 0.001 µM): 0.472
relative viability ([2]; first compound 0.003162 µM): 0.427
relative viability ([2]; first compound 0.01 µM): 0.407
relative viability ([2]; first compound 0.03162 µM): 0.357
relative viability ([2]; first compound 0.1 µM): 0.293
relative viability ([3]; first compound 0.04 µM): 0.396
relative viability ([3]; first compound 0.1265 µM): 0.256
relative viability ([3]; first compound 0.4 µM): 0.345
relative viability ([3]; first compound 1.265 µM): 0.392
relative viability ([3]; first compound 4 µM): 0.412
relative viability ([4]; first compound 0.04 µM): 0.976
relative viability ([4]; first compound 0.1265 µM): 0.802
relative viability ([4]; first compound 0.4 µM): 0.448
relative viability ([4]; first compound 1.265 µM): 0.38
relative viability ([4]; first compound 4 µM): 0.335
